Patent publication US20230174582A1, “VIPR2 ANTAGONIST PEPTIDE” (ICHIMARU PHARCOS CO., LTD, priority 2020, published 2023)
“Also recorded” adds a separate entry of the source. Starred links: 1 amine or outer side, 2 acyl side, 3 side chain; linkers in the order of their positions; H or OH if unused. Positions of bridges follow the written chain, without caps; N, C: chain ends. Non-standard residues stand in square brackets, D forms with d. Residues, ends and D or L forms follow the SMILES beside them. TBMB = c1c(C[*:1])cc(C[*:3])cc1C[*:2]; mXylylene = c1cc(C[*:1])cc(C[*:2])c1; NMeY = CN[C@@H](Cc1ccc(O)cc1)C(=O)O; Dap = NC[C@H](N)C(=O)O; Mpa = O=C(O)CCS; Sar = CNCC(=O)O

How the values were obtained:
VIPR2 [1] = biological target: T1, VIPR2 (Homo sapiens, UniProt P41587); assay: Change in intracellular calcium concentration in VIPR2-expressing cells (Fluo-8), peptide co-added with VIP; format: cell-based; parameters: host or cells: purchased human VIPR2-expressing cell line; conditions: VIP 150 nM, peptide 750 nM co-added, FIG. 5
T1 sequence (P41587 24-438): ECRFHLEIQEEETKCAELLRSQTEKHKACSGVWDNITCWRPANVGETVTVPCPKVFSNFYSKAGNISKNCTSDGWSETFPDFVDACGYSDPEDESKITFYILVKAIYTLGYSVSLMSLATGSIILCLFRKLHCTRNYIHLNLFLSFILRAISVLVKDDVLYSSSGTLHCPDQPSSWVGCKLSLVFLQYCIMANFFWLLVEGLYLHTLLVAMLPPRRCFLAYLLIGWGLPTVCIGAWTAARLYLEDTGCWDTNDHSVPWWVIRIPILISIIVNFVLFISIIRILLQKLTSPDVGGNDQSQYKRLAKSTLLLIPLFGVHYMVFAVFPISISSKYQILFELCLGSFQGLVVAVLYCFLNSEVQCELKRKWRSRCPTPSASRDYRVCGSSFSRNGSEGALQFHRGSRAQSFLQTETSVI
Procedure: One of the downstream signals of VIPR2 is known to be changes in intracellular calcium concentration. Human VIPR2-expressing cell line (Catalog No. HTS079RTA, manufactured by Eurofins) was treated with Scree Quest™ Fluo-8 No Wash Calcium Assay Kit (Catalog No. 36315, AAT Bioquest) to introduce Fluo-8, an indicator reagent to measure changes in intracellular calcium concentration by fluorescence. The natural ligand VIP (150 nM final concentration) and VIpep-3 (final concentration 750 nM) or representative examples of the peptides of the embodiments (Seq-1, Seq 5-9) (final concentration 750 nM) were co-added and changes in fluorescence intensity were observed over time using fluorescence microscopy. The difference between the fluorescence intensity before the addition of VIP and the strongest fluorescence intensity after the addition of VIP was taken as 100% and compared to the difference in fluorescence intensity when VIpep-3 or the inventive peptide was co-added.

[2] = Resistance to protease degradation in rat plasma (RP-HPLC peak); format: in vitro ADME; conditions: 37° C., 24 hours compared to 0 hours, FIG. 6
Procedure: To confirm that the peptides of the embodiments are resistant to protease degradation compared to VIpep-3, VIpep-3 or representative peptides of the embodiments (Seq-1, Seq-6, Seq-9, or Seq-10) were mixed in rat plasma, and after a certain incubation time, the residual amount of the peptide was evaluated by the presence or absence of peaks on RP-HPLC. To 1 μL of each 10 mM peptide, 20 μL of rat plasma was added, and incubated at 37° C. for an arbitrary time (0 or 24 hours). Then, for VIpep-3, 80% acetonitrile, for the other peptides, 200 μL each of acetonitrile was added, mixed well, placed on ice for 10 minutes, and centrifuged at 15,000 rpm at 4° C. for 10 minutes to remove plasma proteins.

VIPR2 [3] = biological target: T1, VIPR2; assay: Selective antagonist activity: intracellular calcium change (FLIPR Tetra) in VIPR1-, VIPR2- or PAC1-expressing cells; format: cell-based; parameters: host or cells: VIPR2-expressing cells
Procedure: A representative example of any concentration of the inventive peptide (Seq-10) was added to cells expressing VIPR1-expressing cells, VIPR2-expressing cells, or PAC1-expressing cells all of which have been transfected with intracellular calcium concentration indicator and incubated for 30 minutes. Then, VIPR1 cells and VIPR 2 cells were treated with VIP (25 nM and 150 nM, respectively), and PAC1 cells were treated with PACAP (35 nM). The change in intracellular calcium concentration for 2 minutes immediately after the addition thereof was measured by FLIPR Tetra. The inhibition rate of the antagonist peptides was calculated, assuming that the change in intracellular calcium concentration when only the ligand for VIP or PACAP was added was defined as 0% inhibition, and the change in intracellular calcium concentration when both the antagonist peptide and the ligand were not added was defined as 100%.

VIPR2 [4] = biological target: T2, VIPR2 (Mus musculus, UniProt P41588); assay: VIPR2 antagonist activity in vivo: CREB phosphorylation in prefrontal cortex (Western blotting); conditions: ICR mice 12 days old, male, s.c., Ro25-1553 0.4 nmol/g with peptide 1 or 10 nmol/g, 1 hour, FIG. 8
T2 construct: from tissue; host or cells: prefrontal cortex of ICR mice, 12 days old, male
T2 sequence (P41588 23-437): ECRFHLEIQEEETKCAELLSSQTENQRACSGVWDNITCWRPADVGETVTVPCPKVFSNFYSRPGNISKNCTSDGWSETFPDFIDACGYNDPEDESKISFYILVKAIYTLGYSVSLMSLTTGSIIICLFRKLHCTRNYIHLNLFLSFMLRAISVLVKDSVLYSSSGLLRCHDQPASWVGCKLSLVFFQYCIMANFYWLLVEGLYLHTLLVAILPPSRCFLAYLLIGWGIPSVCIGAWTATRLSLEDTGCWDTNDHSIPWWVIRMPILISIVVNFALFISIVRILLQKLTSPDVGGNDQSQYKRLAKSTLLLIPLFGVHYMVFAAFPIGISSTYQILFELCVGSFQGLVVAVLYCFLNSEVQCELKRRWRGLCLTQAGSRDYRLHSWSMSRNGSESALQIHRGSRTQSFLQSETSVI
Procedure: Ro25-1553 (Peptide Institute, Inc.) which is an analog of VIP and a selective agonist for VIPR2, was dissolved in PBS (0.4 nmol/g body weight), and then mixed at 9:1 with the representative example of the inventive peptide (Seq-10) dissolved in DMSO (1 nmol/g body weight or 10 nmol/g body weight) or DMSO (vehicle group) (at a final concentration of DMSO is 10%). These solutions were administered subcutaneously to ICR mice (12 days old, male). 1 hour later, brains were removed, prefrontal cortex was dissected, and the phosphorylation of intracellular cyclic AMP response sequence-binding protein (CREB) (one of the downstream signals of VIPR2) in the cells was evaluated by Western blotting. The antibodies used for Western blotting were anti-phosphorylated CREB antibody (#9198) and anti-CREB antibody (#9197) purchased from Cell Signaling Technology.

ICR mice = assay: Novel object recognition test; format: in vivo; conditions: Ro25-1553 0.07 nmol/g mixed with peptide 1 nmol/g, FIG. 9B
Procedure: We evaluated whether the peptide could improve the recognition function to novel objects, which is reduced by the activation of VIPR2. Ro25-1553 (Peptide Institute, Inc.) an analog of VIP and a selective agonist for VIPR2, was dissolved in PBS (0.07 nmol/g body weight), and then mixed at 99:1 with a representative example of the inventive peptide (Seq-10) dissolved in DMSO (1 nmol/g body weight) or DMSO (Vehicle group) (1% final concentration of DMSO). These solutions were administered subcutaneously once daily to male ICR mice on postnatal day 1 for 14 days, the mice were continuously bred and subjected to a novel object recognition test at 8 weeks of age. The novel object recognition test was conducted during the light period (8:00-20:00) according to Non-Patent Literature 12. First, test cages (30 cm×30 cm×35 cm) made of acrylic-modified polyvinyl chloride were placed in a soundproofed laboratory at an illumination level of 30 lux and covered only with wooden sterilized soft chips (Sankyo Lab Service Co.). […] The animals' behavior during the training and test trials was video-recorded, and the search time for each of the two objects was measured. The discrimination index was calculated as the ratio (%) of the search time difference between object c and object a to the total search time in the test trial.

[5] = biological target: T3, extracellular domain of human VIPR2 (Homo sapiens, UniProt P41587); conditions: recombinant protein, Non-Patent Literature 8; cited from earlier work
T3 sequence (P41587 24-124 limits assumed): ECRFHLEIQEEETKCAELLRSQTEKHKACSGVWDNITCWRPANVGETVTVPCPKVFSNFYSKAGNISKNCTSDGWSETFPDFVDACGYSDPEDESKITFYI

VIPR2 [6] = biological target: T1, VIPR2; parameters: host or cells: VIPR2-expressing cells; conditions: cellular studies, Non-Patent Literature 8; cited from earlier work

Compound	inhibition of the receptor-activating activity of VIP on VIPR2 (antagonist activity, intracellular calcium) (VIPR2 [1])	resistance to protease degradation: peptide-derived RP-HPLC peak after incubation in rat plasma [2]	antagonist activity against VIP-VIPR2 interaction versus VIP-VIPR1 or PACAP-PAC1 interactions (selectivity) (VIPR2 [3]; peptide preincubated 30 minutes, VIP 25 nM (VIPR1), VIP 150 nM (VIPR2), PACAP 35 nM (PAC1), FIG. 7)	antagonist activity against VIPR2-expressing cells (VIPR2 [3]; summary statement, Seq-10 tested with VIP 150 nM, FLIPR Tetra)	phosphorylation of CREB in prefrontal cortex (VIPR2 [4])	recognition of novel objects versus Ro25-1553 alone (discrimination index) (ICR mice; s.c. once daily 14 days from postnatal day 1, test at 8 weeks, p less than 0.001 (Student's t-test))	recognition function compared with normal mice (ICR mice; s.c. once daily 14 days, test at 8 weeks)	binding to VIPR2 extracellular region/domain [5]	inhibition of VIP and PACAP signaling pathway through VIPR2 (VIPR2 [6])
CC[C@H](C)[C@H](NC(=O)[C@H](CC(C)C)NC(=O)[C@@H]1CC(=O)NCCCC[C@@H]2NC(=O)[C@@H]3CCCN3C(=O)[C@H](CC(C)C)NC(=O)[C@H](Cc3ccc(O)cc3)N(C)C(=O)CCSCc3cccc(c3)CSC[C@H](NC(=O)[C@H](CC(C)C)NC(=O)[C@H](Cc3ccc(O)cc3)NC2=O)C(=O)N1)C(N)=O [Seq-6, c(Mpa-NmeTyr-Leu-Pro-c[Lys-Tyr-Leu-Cys)-Asp]-Leu-Ile-NH2] ([Mpa][NMeY]LPKYLCDLI-NH2; linker 1-8 via mXylylene; lactam 5-9)	antagonist activity	resistance to protease degradation; also recorded: remained almost the same							
CC[C@H](C)[C@H](NC(=O)[C@H](CC(C)C)NC(=O)[C@@H]1CC(=O)NCCCC[C@@H]2NC(=O)[C@@H]3CCCN3C(=O)[C@H](CC(C)C)NC(=O)[C@H](Cc3ccc(O)cc3)NC(=O)[C@@H]3CCCN3C(=O)[C@@H]3CCCN3C(=O)[C@@H](NC(C)=O)CSSC[C@H](NC(=O)[C@H](CC(C)C)NC(=O)[C@H](Cc3ccc(O)cc3)NC2=O)C(=O)N1)C(N)=O [Seq-10, Ac-c(Cys-Pro-Pro-Tyr-Leu-Pro-c[Lys-Tyr-Leu-Cys)-Asp]-Leu-Ile-NH2] (Ac-CPPYLPKYLCDLI-NH2; disulfide 1-10; lactam 7-11)		resistance to protease degradation; also recorded: remained almost the same	significantly strong against VIP-VIPR2 interaction than those against VIP-VIPR1 or PACAP-PAC1 interactions	antagonist activity	clearly inhibited	significant improvement	almost the same as that of normal mice		
CC(=O)N[C@H]1CSSC[C@@H](C(=O)N[C@H](C(=O)N[C@@H](CC(C)C)C(=O)N[C@@H](CC(C)C)C(=O)N[C@@H](CC(C)C)C(=O)N[C@@H](CCCNC(=N)N)C(=O)N[C@@H](CO)C(=O)O)[C@@H](C)O)NC(=O)[C@H](CC(C)C)NC(=O)[C@H](CCCNC(=N)N)NC(=O)[C@H](CCCNC(=N)N)NC(=O)[C@@H]2CCCN2C(=O)[C@H](CC(C)C)NC(=O)[C@H](Cc2ccc(O)cc2)NC(=O)[C@@H]2CCCN2C(=O)[C@@H]2CCCN2C1=O [VIpep-3, Ac-c(Cys-Pro-Pro-Tyr-Leu-Pro-Arg-Arg-Leu-Cys)-Thr-Leu-Leu-Leu-Arg-Ser-OH] (Ac-CPPYLPRRLCTLLLRS-OH; disulfide 1-10)	inhibit the receptor-activating activity of VIP on VIPR2	greatly reduced						tightly binds	inhibits
c(Mpa-NmeTyr-Leu-NmeGly-c(Cys)-Tyr-Leu-Cys)-Dap-Leu-Ile-NH2 ([Mpa][NMeY]L[Sar]CYLC[Dap]LI-NH2; linker (positions not given here) via TBMB; not fully specified (bridges)) [Seq-9, cyclization TBMB(1-5-8)]	antagonist activity	resistance to protease degradation; also recorded: remained almost the same							
c(Mpa-Pro-Pro-Tyr-Leu-Pro-c[Lys-Tyr-Leu-Cys)-Asp]-Leu-Ile-NH2 ([Mpa]PPYLPKYLCDLI-NH2; disulfide (positions not given here); lactam 7-11; not fully specified (bridges)) [Seq-1, cyclization S-S(1-10)/amide(7-11)]	antagonist activity; also recorded: inhibit the receptor-activating activity of VIP on VIPR2	resistance to protease degradation; also recorded: remained almost the same							
